Laboratory results published in the supplement of paper PMC8671470.

Columns and labels:
Conditions in all cases: 72 h
KCL-22 [1] = test system: KCL-22
In short: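 Fifteen myeloid leukaemia lines in RPMI 1640 were treated for 72 h at 37 °C and 5% CO2 with five tenfold doses from 1 to 10,000 nM, in duplicate. ATP luminescence was normalised to vehicle and to a positive control at 10 µM, then fitted with a four-parameter log-logistic model. The IC50 came from these fits.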

HL-60 [2] = experiment: cell viability (% survival relative to DMSO control); higher = less cytotoxic
In short: (§1)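 Four-parameter log-logistic fits in drc and PharmacoGx supplied area under the curve where it is given. Underlying viability came from CellTiter-Glo, normalised to DMSO and proteasome-inhibitor wells, with the proteasome inhibitor at 10 μM. HL-60 cells in RPMI 1640 plus 10% FBS had been rescreened against the full library at five tenfold concentrations of 1–10,000 nM, in duplicate on 384-well plates, with DMSO or 100 nM of one of three metabolic inhibitors, for 72 h at 37 °C, 5% CO2.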

BV-173 = experiment: cell viability (% survival relative to DMSO control, bortezomib = 0%); higher = less cytotoxic
In short: (§2)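 After 72 h at 37 °C with 5% CO2, cell viability in 384-well plates was measured by CellTiter-Glo luminescence. The plates held compounds pre-printed at 1, 10, 100, 1000 or 10000 nM in duplicate, and cells from 10 AML and 5 CML lines seeded at densities titrated to linear growth. Percent survival is the duplicate mean, normalised to vehicle as 100% and a 10 µM positive control as 0%.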

HEL = experiment: as above
In short: as §2

HL-60 [3] = experiment: as above
In short: as §2

K-562 = experiment: as above
In short: as §2

KCL-22 [4] = experiment: as above
In short: as §2

KG-1 = experiment: as above
In short: as §2

KU-812 = experiment: as above
In short: as §2

LAMA-84 = experiment: as above
In short: as §2

ML-2 = experiment: as above
In short: as §2

MOLM-13 = experiment: as above
In short: as §2

MV4-11 = experiment: as above
In short: as §2

Mono-Mac-6 = experiment: as above
In short: as §2

NOMO-1 = experiment: as above
In short: as §2

SHI-1 = experiment: as above
In short: as §2

THP-1 = experiment: as above
In short: as §2

HL-60 [5] = experiment: area under dose-response curve (viability, 1 nM-10 uM) (fraction (0-1)); higher = more sensitive
In short: as §1

O=c1oc2c(cc1O)oc(=O)c1cc(O)c(O)c(O)c12 [Galloflavin]
Conditions | IC50 (cell viability) [µM]
KCL-22 [1] | > 10

cell viability [%], HL-60 [2]
Conditions | 0.001 µM | 0.01 µM | 0.1 µM | 1 µM | 10 µM
co-treatment: AZD3965 100 nM | 81.9 | 97.2 | 110 | 112 | 99.6
co-treatment: DMSO vehicle | 102 | 84.8 | 104 | 109 | 99.28
co-treatment: GSK2194069 100 nM | 92.6 | 84.7 | 104 | 105 | 96.52
co-treatment: pictilisib 100 nM | 109 | 93.7 | 94.13 | 107 | 98.54

Conditions | area under dose-response curve, co-treatment: AZD3965 100 nM | area under dose-response curve, co-treatment: DMSO vehicle | area under dose-response curve, co-treatment: GSK2194069 100 nM | area under dose-response curve, co-treatment: pictilisib 100 nM | cell viability, 1 nM [%] | cell viability, 10 nM [%] | cell viability, 100 nM [%] | cell viability, 1000 nM [%] | cell viability, 10000 nM [%]
BV-173 | – | – | – | – | 91 | 97.5 | 99.4 | 108 | 118
HEL | – | – | – | – | 99.7 | 98.6 | 122 | 106 | 107
HL-60 [3] | – | – | – | – | 108 | 101 | 114 | 180 | 186
HL-60 [5] | < 0.0301 | < 0.0301 | < 0.0301 | < 0.0301 | – | – | – | – | –
K-562 | – | – | – | – | 107 | 105 | 100 | 116 | 112
KCL-22 [4] | – | – | – | – | 103 | 95.3 | 102 | 104 | 112
KG-1 | – | – | – | – | 92.7 | 97.2 | 114 | 115 | 100
KU-812 | – | – | – | – | 94.8 | 96 | 90.7 | 96.6 | 105
LAMA-84 | – | – | – | – | 93.7 | 95 | 106 | 98.2 | 99.4
ML-2 | – | – | – | – | 101 | 95 | 113 | 111 | 115
MOLM-13 | – | – | – | – | 99.3 | 120 | 92 | 115 | 119
MV4-11 | – | – | – | – | 100 | 102 | 94.5 | 106 | 102
Mono-Mac-6 | – | – | – | – | 92.9 | 99.7 | 113 | 113 | 100
NOMO-1 | – | – | – | – | 91.8 | 97.7 | 99.1 | 102 | 106
SHI-1 | – | – | – | – | 108 | 105 | 106 | 112 | 104
THP-1 | – | – | – | – | 98 | 99.3 | 101 | 99.4 | 108
